Measurements reported in patent US8742106B2 (Novartis AG, priority 2009, dated 2014).

Tests used:
human orexin 2 receptors = human orexin 2 receptors (Homo sapiens (Human), UniProt O43614); test: Calcium Accumulation in Cells (FLIPR), antagonism of orexin A; format: cell-based; conditions: for Ki: antagonism of orexin A, Cheng-Prusoff corrected, read-out: FLIPR hOx2R Ki
How it was run: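 Antagonism was measured as block of orexin A-evoked Ca²⁺ fluorescence (FLIPR), with orexin A added one hour after test compound (usually 10^−9–10^−5 M), which was first read alone for agonist activity. Human orexin 2 receptor cells were dye-loaded with 2 μM Fluo4-AM and 0.1 mM probenecid for 1 h.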

human orexin 1 receptors = human orexin 1 receptors (Homo sapiens (Human), UniProt O43613); test: as above; format: cell-based; conditions: for Ki: antagonism of orexin A, Cheng-Prusoff corrected, read-out: FLIPR hOx1R Ki; for inhibition at 10 µM: measured at a concentration of 10 μM of compound, read-out: FLIPR hOx1R % inhibition value
Chain of human orexin 1 receptors (O43613 whole entry): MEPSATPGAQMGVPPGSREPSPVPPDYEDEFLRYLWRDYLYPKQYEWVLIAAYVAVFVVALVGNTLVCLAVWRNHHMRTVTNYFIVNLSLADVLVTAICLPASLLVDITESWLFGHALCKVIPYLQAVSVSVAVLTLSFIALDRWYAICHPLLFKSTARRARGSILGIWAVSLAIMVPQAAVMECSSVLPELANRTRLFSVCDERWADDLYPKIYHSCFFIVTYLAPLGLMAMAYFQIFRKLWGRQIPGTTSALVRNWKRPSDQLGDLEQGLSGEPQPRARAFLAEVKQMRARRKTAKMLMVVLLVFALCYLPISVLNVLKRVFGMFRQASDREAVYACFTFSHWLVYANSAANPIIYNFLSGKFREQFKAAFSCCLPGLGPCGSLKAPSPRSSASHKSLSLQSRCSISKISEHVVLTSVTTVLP

Chain of human orexin 2 receptors (O43614 whole entry): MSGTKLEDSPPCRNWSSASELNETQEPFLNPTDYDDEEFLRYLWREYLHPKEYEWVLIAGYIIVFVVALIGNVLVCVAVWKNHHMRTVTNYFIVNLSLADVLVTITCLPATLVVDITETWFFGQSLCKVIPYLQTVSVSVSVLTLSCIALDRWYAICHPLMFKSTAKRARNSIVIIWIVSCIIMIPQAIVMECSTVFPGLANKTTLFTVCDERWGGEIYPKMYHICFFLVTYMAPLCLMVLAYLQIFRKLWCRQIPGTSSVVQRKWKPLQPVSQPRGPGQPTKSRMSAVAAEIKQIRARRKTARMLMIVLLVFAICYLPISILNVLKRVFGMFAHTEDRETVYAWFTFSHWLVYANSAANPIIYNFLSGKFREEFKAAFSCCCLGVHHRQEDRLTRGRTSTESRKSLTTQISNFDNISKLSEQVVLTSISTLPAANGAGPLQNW

| SMILES | Ki (human orexin 2 receptors) [nM] | Ki (human orexin 1 receptors) [nM] | inhibition at 10 µM (human orexin 1 receptors) [%] | inhibition at 10 µM (human orexin 2 receptors; measured at a concentration of 10 μM of compound, read-out: FLIPR hOx2R % inhibition value) [%] |
| --- | --- | --- | --- | --- |
| COc1ccc(C(C)NC(=O)COc2cc(C(F)F)c3c(C4CC4)nn(C)c3n2)cn1 (stereo not drawn) [Example 6.10, 2-(3-cyclopropyl-4-(difluoromethyl)-1-methyl-1H-pyrazolo[3,4-b]pyridin-6-yloxy)-N-(1-(6-methoxypyridin-3-yl)ethyl)acetamide] | 184 | 516 |  |  |
| Cc1ccc([C@H](C)NC(=O)COc2cc(C(C)C)c3c(C4CC4)nn(C)c3n2)cc1 [Example 6.11, (S)-2-(3-cyclopropyl-4-isopropyl-1-methyl-1H-pyrazolo[3,4-b]pyridin-6-yloxy)-N-(1-p-tolylethyl)acetamide] | 208 | 691 |  |  |
| Cc1nn(C)c(C)c1C(C)NC(=O)COc1cc(C(F)(F)F)c2c(C3CC3)nn(C)c2n1 (stereo not drawn) [Example 6.12, 2-(3-cyclopropyl-1-methyl-4-(trifluoromethyl)-1H-pyrazolo[3,4-b]pyridin-6-yloxy)-N-(1-(1,3,5-trimethyl-1H-pyrazol-4-yl)ethyl)acetamide] | 165 | 680 |  |  |
| Cc1ccc(C(C)NC(=O)COc2cc(C(F)(F)F)c3c(C4CC4)nn(C)c3n2)cn1 (stereo not drawn) [Example 6.16, 2-(3-cyclopropyl-1-methyl-4-(trifluoromethyl)-1H-pyrazolo[3,4-b]pyridin-6-yloxy)-N-(1-(6-methylpyridin-3-yl)ethyl)acetamide] | 188 | 1590 |  |  |
| Cc1ccc(C(C)NC(=O)COc2cc(C(F)F)c3c(-c4ccccc4)nn(C)c3n2)cn1 (stereo not drawn) [Example 6.18, 2-(4-(difluoromethyl)-1-methyl-3-phenyl-1H-pyrazolo[3,4-b]pyridin-6-yloxy)-N-(1-(6-methylpyridin-3-yl)ethyl)acetamide] | 98 | 535 |  |  |
| Cc1ccc(C(C)NC(=O)COc2cc(C(F)F)c3c(C4CC4)nn(C)c3n2)cn1 (stereo not drawn) [Example 6.19, 2-(3-cyclopropyl-4-(difluoromethyl)-1-methyl-1H-pyrazolo[3,4-b]pyridin-6-yloxy)-N-(1-(6-methylpyridin-3-yl)ethyl)acetamide] | 800 |  | 41 |  |
| Cc1ccc([C@H](C)NC(=O)COc2ccc3c(C4CC4)nn(C)c3n2)cc1 [Example 6.23, (S)-2-(3-cyclopropyl-1-methyl-1H-pyrazolo[3,4-b]pyridin-6-yloxy)-N-(1-p-tolylethyl)acetamide] | 237 | 1100 |  |  |
| COc1ccc([C@H](C)NC(=O)COc2cc(C)c3c(C(C)C)nn(C)c3n2)cc1 [Example 6.27, (S)-2-(3-isopropyl-1,4-dimethyl-1H-pyrazolo[3,4-b]pyridin-6-yloxy)-N-(1-(4-methoxyphenyl)ethyl)acetamide] | 105 | 415 |  |  |
| COc1ccc(C(C)NC(=O)COc2cc(C)c3c(C(C)C)nn(C)c3n2)cn1 (stereo not drawn) [Example 6.28, 2-(3-isopropyl-1,4-dimethyl-1H-pyrazolo[3,4-b]pyridin-6-yloxy)-N-(1-(6-methoxypyridin-3-yl)ethyl)acetamide] | 1220 |  | 39 |  |
| Cc1nn(C)c(C)c1C(C)NC(=O)COc1cc(C)c2c(C(C)C)nn(C)c2n1 (stereo not drawn) [Example 6.29, 2-(3-isopropyl-1,4-dimethyl-1H-pyrazolo[3,4-b]pyridin-6-yloxy)-N-(1-(1,3,5-trimethyl-1H-pyrazol-4-yl)ethyl)acetamide] |  |  | 36 | 34 |
| COc1ccc(C(C)NC(=O)COc2cc(C)c3c(-c4cc(C)oc4C)nn(C)c3n2)cn1 (stereo not drawn) [Example 6.32, 2-(3-(2,5-dimethylfuran-3-yl)-1,4-dimethyl-1H-pyrazolo[3,4-b]pyridin-6-yloxy)-N-(1-(6-methoxypyridin-3-yl)ethyl)acetamide] | 950 | 845 |  |  |
| Cc1ccc([C@H](C)NC(=O)COc2ccc3c(-c4ccccc4C)nn(C)c3n2)cc1 [Example 6.35, (S)-2-(1-methyl-3-o-tolyl-1H-pyrazolo[3,4-b]pyridin-6-yloxy)-N-(1-p-tolylethyl)acetamide] | 126 | 256 |  |  |
